Consider two molecules from patent US20140023656A1, “PHARMACEUTICAL COMPOSITION FOR TREATMENT AND PREVENTION OF TH3 MARCH-RELATED DISEASES” (BioLT CO., LTD., priority 2010, published 2014).

One assay relates to vulgaris psoriasis. Kind of assay: Clinical effects in vulgaris psoriasis (Th1 disease/Th3 march). In kind it is in vivo, human. The settings on record: person, oral 75 mg twice per day as polaprezinc, 61 days. How it is done:
This example is an example of treatment of Th2 march patient from Th1 disease (psoriasis). (1) For referential example (control experiment), zinc agent (Trade name: Promac) was tried to be administrated to this patient. Since the activated TGF-β1 was as high as 9.3 ng/ml (average value of healthy subjects: 1.1 ng/ml), a novel supplement TgF was administrated to regulate TGF-β1. Thereafter, Promac was orally administrated to the adult twice per day in an amount of 75 mg per one dosage, or 1.6 mg/kg at a time after breakfast and a time before bedtime as polaprezinc. Promac was administrated for 61 days. […] (2) On the other hand, zinc finger/Znf was administrated to the patient for 74 days. This case (vulgaris psoriasis) is a disease presenting hyperkeratosis and is characterized by scale.

The test system of another assay is filaggrin (FLG) proteins. In words: ELISA measurement of filaggrin (FLG) and filaggrin repair capacity. The format is in vivo, human. The settings on record: person, vulgaris psoriasis. From the text: A kit for sandwich enzyme immunoassay was used for quantitatively in vitro measuring filaggrin (FLG) proteins (gene related filaggrin) in a tissue homogenate or other body fluids.
Specifically, as for detection strength, measurement was done at a wavelength of 450 nm. Biotin-coupled polyclonal antibody specifically coupled with FLG was used, and the actual measured value of filaggrin (ng/ml frozen serum) was roughly estimated by a standard curve (FIG. 17) previously prepared with FLG standard sample.
Amongst mammal patients (human and dog etc.) having Th3 march/test animals, patients an amount of filaggrin proteins based on filaggrin (FLG) gene which is responsible gene of atopy syndrome (atopy is newly defined as atopy syndrome by the finding of filaggrin) were not detected or were detected in a small amount (deletion or mutation of filaggrin gene) were selected (Th3-FLG).
Subsequently, “zinc finger/Znf” (see Table 5 above) was administrated to the patients etc. (Th3-FLG) in which deletion etc. of filaggrin were confirmed, after which filaggrin repair activity was compared. […]
The filaggrin repair capacity (% of control) by zinc finger/Znf was calculated according to the following formula: […]
A general note: An ELISA detects its analyte on a solid surface through an enzyme-linked reagent.

For the next assay, the system named is dog rheumatoid arthritis. Kind of assay: Treatment of dog rheumatoid arthritis (plain x-ray examination, walking). The format is in vivo. From the text: FIG. 3 is a drawing showing the results of examining characteristic bone resorption in dog rheumatoid arthritis. Th3 march via zinc cell cytokine signal is marching through a route of cell surface BMP and TGF-β1. […] When the healing can be seen thereafter (FIG. 4), bone resorption and bone augmentation are equilibrated. However, TH3 vital reaction is enhanced to clinically induce atopic dermatitiss.
In FIG. 4, according to the finding of the plain x-ray examination, a bone resorption image of arthritis due to rheumatoid arthritis which is Th1 vital reactive disease (pretreatment) is shown. In the right figure of FIG. 4 showing the post-treatment, an improvement image of joint was seen when bone resorption and bone augmentation were balanced. […] According to the finding of post-treatment in the right figure of FIG. 4, incisura trochlearis in the elbow joint was visualized and significant improvement tendency was observed (Evaluation: While the dog before treatment hated going for a walk, the dog could go for a walk (about 5 minutes). It is noted that the standard walking period in the same kind of dog is within 30 minutes).

For `NCCC(=O)[N-][C@@H](Cc1c[nH]cn1)C(=O)[O-].[Zn+2]` [Promac, polaprezinc], the clinical effect entry is given as “no clinical effect could be recognized” in the assay on vulgaris psoriasis and “no effect” in the assay with vulgaris psoriasis (listed as zinc agent). Further, the filaggrin with filaggrin (FLG) proteins (at the time after zinc agent (control experiment)) amounted to 0.9 ng/mL. Also, the FLA repair result with filaggrin (FLG) proteins (oral 75 mg twice per day as polaprezinc, 61 days) is “could not be recognized”.

B1: IFN-γ: recombinant interferon-gamma used to treat dog rheumatoid arthritis (protein, UniProt P42161 24-166, looked up)
Interferon gamma: QAMFFKEIENLKEYFNASNPDVSDGGSLFVDILKKWREESDKTIIQSQIVSFYLKLFDNFKDNQIIQRSMDTIKEDMLGKFLNSSTSKREDFLKLIQIPVNDLQVQRKAINELIKVMNDLSPRSNLRKRKRSQNLFRGRRASK
Regarding B1, the “walk the dog could go for” value in the assay on dog rheumatoid arthritis (dog after treatment, before treatment hated going for a walk, standard within 30 minutes) is “about 5 minutes”. For the same molecule, the “bone resorption during the course of the treatment” value in the assay with dog rheumatoid arthritis (dog rheumatoid arthritis, FIG. 3) is on record as “bone resorption is predominant”. For the same molecule, the “hyperpermeability image due to invasion around the joint and inflammation of joint” value in the assay with dog rheumatoid arthritis (dog, Th1 arthritis, direct administration of 4MU within the joint, plain x-ray) is listed as “significantly improved”.
